From USRE47689E1, “Compounds for treating spinal muscular atrophy” (PTC Therapeutics, Inc., priority 2011, dated 2019)

Experiments:
[1] = test system: SMN2 minigene (full length SMN2 minigene mRNA containing SMN2 exon 7); experiment: SMN2 minigene mRNA splicing RT-qPCR assay in cultured cells; assay type: cell-based, human; settings: Homo sapiens, HEK293-H; HEK293H cells stably transfected with SMN2-A minigene; 24 hours; 7-point concentration curve; 1.5-fold relative to vehicle-treated cells; read-out: EC1.5x for production of full length SMN2 mRNA
Summary of the method: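 HEK293H cells stably carrying the SMN2-A minigene treated 24 h at 37° C with compound (DMSO, 200× stock), then lysed. Multiplex RT-qPCR (SMN primers 0.4 μM final; 40 cycles) measures full-length exon 7-containing minigene mRNA, normalized to GAPDH and to vehicle; EC1.5x derived and binned by stars.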

Smn protein = Smn protein assay in cultured cells (SMN HTRF); assay type: cell-based, human; settings: 48 hours; for EC1.5x (concentration giving 1.5-fold Smn protein increase): SMA Type 1 patient fibroblast cells (GM03813), 7-point concentration curve, SMN HTRF, concentration producing 1.5 times Smn protein vs DMSO vehicle control, read-out: EC1.5x for Smn protein expression; for maximum fold (Fold) increase of Smn protein: SMA patient fibroblast cells, 7-point concentration data, fold increase relative to vehicle control (SMN HTRF)
Summary of the method: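 Lysates in RIPA with protease inhibitors are incubated overnight at room temperature with HTRF anti-SMN antibodies. EC1.5x is derived from fold increase in ΔF over vehicle.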

| melting point [°C] | SMILES | EC (1.5-fold) [1] [µM] | EC1.5x (concentration giving 1.5-fold Smn protein increase) (Smn protein) [nM] | maximum fold (Fold) increase of Smn protein (Smn protein) |
| --- | --- | --- | --- | --- |
| 218 to 220 | Cc1cc2cc(-c3cc4ccc(N5CCNCC5)cc4oc3=O)oc2c(C)n1 [Cpd 723, 3-(5,7-dimethylfuro[2,3-c]pyridin-2-yl)-7-(piperazin-1-yl)-2H-chromen-2-one] | < 0.1 | < 300 | ***** (fold increase >1.65) |
| 254 to 256 | Cc1cnc2nc(-c3cc4ccc(N5CCN[C@@H](C)C5)cc4oc3=O)cn2c1 [Compound 462, 3-(6-methylimidazo[1,2-a]pyrimidin-2-yl)-7-[(3S)-3-methylpiperazin-1-yl]-2H-chromen-2-one] | < 0.1 | 1000 to 3000 | *** (fold increase between >1.35 and ≤1.5) |
| 206 to 209 | Cc1cn2cc(-c3cc4ccc(N5CCN(C)[C@H](C)C5)cc4oc3=O)ccc2n1 [Compound 661, 7-[(3R)-3,4-dimethylpiperazin-1-yl]-3-(2-methylimidazo[1,2-a]pyridin-6-yl)-2H-chromen-2-one] | < 0.1 | < 300 | ***** (fold increase >1.65) |
| 138 to 140 | C[C@@H]1CN(c2ccc3cc(-c4ccc5c(c4)OCCO5)c(=O)oc3c2)C[C@H](C)N1 [Compound 514, 3-(2,3-dihydro-1,4-benzodioxin-6-yl)-7-[(3R,5S)-3,5-dimethylpiperazin-1-yl]-2H-chromen-2-one] | 3 to 30 | – | * (maximum fold increase of ≤1.2) |
| 205 to 207 | Cc1cn2cc(-c3cc4ccc(N5CCN(C)[C@@H](C)C5)cc4oc3=O)ccc2n1 [Compound 675, 7-[(3S)-3,4-dimethylpiperazin-1-yl]-3-(2-methylimidazo[1,2-a]pyridin-6-yl)-2H-chromen-2-one] | < 0.1 | 1000 to 3000 | **** (fold increase between >1.5 and ≤1.65) |
| 228 to 231 | CN1CCCN(c2ccc3cc(-c4cn5ccsc5n4)c(=O)oc3c2)CC1 [Compound 203, 3-(imidazo[2,1-b][1,3]thiazol-6-yl)-7-(4-methyl-1,4-diazepan-1-yl)-2H-chromen-2-one] | 0.1 to 0.3 | 300 to 1000 | **** (fold increase between >1.5 and ≤1.65) |
| 208 to 210 | CCN1CCN(c2ccc3cc(-c4cc5cnc(C)cn5c4)c(=O)oc3c2)CC1 [Compound 640, 7-(4-ethylpiperazin-1-yl)-3-(3-methylpyrrolo[1,2-a]pyrazin-7-yl)-2H-chromen-2-one] | < 0.1 | < 300 | **** (fold increase between >1.5 and ≤1.65) |
| 164 to 169 | Cc1cc(C)c2nc(-c3cc4ccc(N5CCCN(C)CC5)cc4oc3=O)cn2c1 [Compound 389, 3-(6,8-dimethylimidazo[1,2-a]pyridin-2-yl)-7-(4-methyl-1,4-diazepan-1-yl)-2H-chromen-2-one] | 0.3 to 1 | – | *** (fold increase between >1.35 and ≤1.5) |
| 215 to 219 | C[C@@H]1CN(c2ccc3cc(-c4nc(C(F)(F)F)cs4)c(=O)oc3c2)C[C@H](C)N1 [Compound 236, 7-[(3R,5S)-3,5-dimethylpiperazin-1-yl]-3-[4-(trifluoromethyl)-1,3-thiazol-2-yl]-2H-chromen-2-one] | 1 to 3 | – | * (maximum fold increase of ≤1.2) |
| 150 to 152 | COc1cccc(-c2cc3ccc(N4CCN[C@H](C)C4)cc3oc2=O)n1 [Compound 361, 3-(6-methoxypyridin-2-yl)-7-[(3R)-3-methylpiperazin-1-yl]-2H-chromen-2-one] | 1 to 3 | – | ** (fold increase between >1.2 and ≤1.35) |
| 175 to 177 | Cc1ccn2nc(-c3cc4ccc(N5CCCN(C)CC5)cc4oc3=O)cc2c1 [Compound 310, 7-(4-methyl-1,4-diazepan-1-yl)-3-(5-methylpyrazolo[1,5-a]pyridin-2-yl)-2H-chromen-2-one] | 0.3 to 1 | – | ** (fold increase between >1.2 and ≤1.35) |
| 219 to 223 | Cc1cn2cc(-c3cc4ccc(CCN(C)C)cc4oc3=O)nc2c(C)n1 [Compound 864, 7-[2-(dimethylamino)ethyl]-3-(6,8-dimethylimidazo[1,2-a]pyrazin-2-yl)-2H-chromen-2-one] | < 0.1 | < 300 | ***** (fold increase >1.65) |
| 141 to 143 | COc1ccc(-c2cc3ccc(N4CCN[C@@H](C)C4)cc3oc2=O)cc1F [Compound 545, 3-(3-fluoro-4-methoxyphenyl)-7-[(3S)-3-methylpiperazin-1-yl]-2H-chromen-2-one] | 0.1 to 0.3 | – | *** (fold increase between >1.35 and ≤1.5) |
| 234 to 236 | Cc1c(-c2nc3ccccc3s2)c(=O)oc2cc(N3CCNCC3)ccc12 [Compound 147, 3-(1,3-benzothiazol-2-yl)-4-methyl-7-(piperazin-1-yl)-2H-chromen-2-one] | 1 to 3 | – | * (maximum fold increase of ≤1.2) |
| 176 to 178 | Cc1cn2cc(-c3cc4ccc(CCCN(C)C)cc4oc3=O)ccc2n1 [Cpd 908, 7-[3-(dimethylamino)propyl]-3-(2-methylimidazo[1,2-a]pyridin-6-yl)-2H-chromen-2-one] | 0.1 to 0.3 | 300 to 1000 | ***** (fold increase >1.65) |
| 167 to 169 | Cc1ccc2nc(-c3cc4ccc(N5CCCC(N(C)C)C5)cc4oc3=O)cn2c1 (stereo not shown) [Compound 200, 7-[3-(dimethylamino)piperidin-1-yl]-3-(6-methylimidazo[1,2-a]pyridin-2-yl)-2H-chromen-2-one] | 3 to 30 | – | * (maximum fold increase of ≤1.2) |
| 255 to 259 | C[C@@H]1CN(c2ccc3cc(-c4cn5cc(Cl)cnc5n4)c(=O)oc3c2)CCN1 [Compound 350, 3-(6-chloroimidazo[1,2-a]pyrimidin-2-yl)-7-[(3R)-3-methylpiperazin-1-yl]-2H-chromen-2-one] | 1 to 3 | – | * (maximum fold increase of ≤1.2) |
| > 310 | Cl.O=c1oc2cc(OC3CCNCC3)ccc2cc1-c1cn2cccnc2n1 [Compound 197, 3-(imidazo[1,2-a]pyrimidin-2-yl)-7-(piperidin-4-yloxy)-2H-chromen-2-one hydrochloride] | 0.3 to 1 | – | ** (fold increase between >1.2 and ≤1.35) |
| 255 to 258 | Cc1cn2cc(-c3cc4ccc(N5CCN6CCC[C@@H]6C5)cc4oc3=O)nc2c(C)n1 [Compound 632, 3-(6,8-dimethylimidazo[1,2-a]pyrazin-2-yl)-7-[(8aR)-hexahydropyrrolo[1,2-a]pyrazin-2(1H)-yl]-2H-chromen-2-one] | < 0.1 | < 300 | ***** (fold increase >1.65) |
| 232 to 239 | Cc1ccn2cc(-c3cc4ccc(NC5CCNCC5)cc4oc3=O)nc2c1 [Compound 495, 3-(7-methylimidazo[1,2-a]pyridin-2-yl)-7-(piperidin-4-ylamino)-2H-chromen-2-one] | 1 to 3 | – | * (maximum fold increase of ≤1.2) |
| 230 to 236 | C[C@H]1CN(c2ccc3cc(-c4cn5cc(F)cnc5n4)c(=O)oc3c2)CCN1 [Compound 492, 3-(6-fluoroimidazo[1,2-a]pyrimidin-2-yl)-7-[(3S)-3-methylpiperazin-1-yl]-2H-chromen-2-one] | 1 to 3 | – | * (maximum fold increase of ≤1.2) |
| 178 to 180 | CCN1CCN(c2ccc3cc(-c4cn5c(C)csc5n4)c(=O)oc3c2)CC1 [Compound 178, 7-(4-ethylpiperazin-1-yl)-3-(3-methylimidazo[2,1-b][1,3]thiazol-6-yl)-2H-chromen-2-one] | 3 to 30 | – | * (maximum fold increase of ≤1.2) |
| 212 to 216 | CCN(CC)CCCCc1ccc2cc(-c3cn4cc(C)nc(C)c4n3)c(=O)oc2c1 [Compound 970, 7-[4-(diethylamino)butyl]-3-(6,8-dimethylimidazo[1,2-a]pyrazin-2-yl)-2H-chromen-2-one] | 0.3 to 1 | 300 to 1000 | ***** (fold increase >1.65) |
| 234 to 238 | C[C@H]1CN(c2ccc3cc(-c4nc(C(F)(F)F)cs4)c(=O)oc3c2)CCN1 [Compound 239, 7-[(3S)-3-methylpiperazin-1-yl]-3-[4-(trifluoromethyl)-1,3-thiazol-2-yl]-2H-chromen-2-one] | 1 to 3 | – | * (maximum fold increase of ≤1.2) |
